The values that follow are results of earlier work, collected in US20220151952A1 (priority 2019, published 2022).

Regarding cannabidiol [CBD], the “solubility in organic solvents” value (organic solvents, such as oil) is on record as “soluble”. Besides, the solubility in water entry (water) is listed as “insoluble”.
